# Reference: patent publication US10301304B2, “Selective inhibitor of phosphatidylinositol 3-kinase-gamma” (VERTEX PHARMACEUTICALS INCORPORATED, priority 2013, dated 2019)
# Where two headings read alike, the source gives them in different places.
# Key:
# [1] = Intravenous bolus pharmacokinetics; format: in vivo; details: single IV bolus; for AUC / AUC(0-inf) / clearance / half-life / Vd: in vivo; for Vd: read-out: Vss
# Excerpt: Following intravenous administration of a single bolus dose, Compound 1 had low systemic clearance and a long half-life in all species tested. […] The volume of distribution was greater than the total body water, indicating distribution of Compound 1 to tissues.
# [2] = Permeability in MDCK wild-type cell line; format: in vitro ADME, canine; details: dog, MDCK-WT
# Experimental: (§1) The permeability of Compound 1 was evaluated using both Caco-2 and MadinDarby canine kidney (MDCK) wild-type cell lines. Cells were exposed to drug in buffer on the apical side (measuring permeability in the A-to-B direction) or basolateral side (measuring permeability in the B-to-A direction) and incubated at 37° C. for one hour. Permeability was high in the A-to-B direction in both the MDCK and Caco-2 cell lines (33 and 18×10^−6 cm/sec, respectively).
# [3] = test system: MDCK-WT; assay: Permeability in MDCK wild-type cell line; format: in vitro ADME, canine; details: 1 μM, A > B
# Experimental: as §1
# [4] = test system: CD40 induced colitis; assay: CD40 induced colitis (IBD) model, body weight loss; format: in vivo, mouse
# Experimental: The PI3Kγ inhibitor, Compound 1, was tested in a CD40 induced colitis model to determine its effect on disease course. The CD40 model of IBD is induced by injecting an anti-CD40 monoclonal antibody (agonist, i.e., activating antibody versus neutralizing antibody) into T and B cell deficient mice (Rag 1−/− mice) to induce both systemic and intestinal inflammation that leads to colitis and wasting disease via the innate immune pathway. (See, e.g., Immunity 25, 309-318, August 2006). Briefly, Rag1 knock-out mice were injected IP with the anti-CD40 monoclonal antibody FGK45. Starting on Day 0, mice were treated with PBS, vehicle or Compound 1 at 5 mg/kg b.i.d. or 10 mg/kg b.i.d. Compound 1 was administered IP for 7 days on a 10/14-hour b.i.d. dosing regimen. Compound 1 was formulated in 5% NMP/15% PEG-400/80% in a 0.5% HPMC-E50 solution in water. At study termination, serum and colon samples were collected at 2 hours following the last dose for drug concentration analysis. Body weights were measured daily during the study. Compound 1 concentrations were analyzed in the plasma samples collected 2 hours following the final dose at study termination. Concentrations were determined using a high performance liquid chromatography/tandem mass spectrometry (HPLC/MS/MS) method.
# [5] = target: CYP3A4 (Homo sapiens, UniProt P08684); assay: Inhibition of CYP Enzymes in Human Liver Microsomes; format: in vitro ADME; design: evaluated in human liver microsomes using the IC50 shift assay; from tissue; host or cells: human liver microsomes
# Experimental: Inhibition assays were conducted with selective CYP probes for each CYP enzyme at specific concentrations of substrate (close to its dissociation constant (Km) value). Compound 1 was a moderate inhibitor of CYP 1A2, 2B6 and 2C8; […]
# [6] = target: T1, pregnane-X receptor (PXR) (Homo sapiens, UniProt O75469); assay: PXR activation in DPX2 cells; format: in vitro ADME
# T1 construct: expressed in transfected cells; host or cells: DPX2 cells (human hepatoma cell line)
# Experimental: The potential of Compound 1 to activate the pregnane-X receptor (PXR) was evaluated over a range of six concentrations from 0.1-30 μM in DPX2 cells, a human hepatoma cell line that is stably overexpressed with the human PXR gene and a luciferase reporter gene linked to two promoters in the human CYP3A4 gene. Rifampicin was used as a positive control.
# [7] = test system: MCF7 cells; assay: MCF-7 Proliferation Assay; format: cell-based, human; details: for IC50: Homo sapiens
# Experimental: The PI3K-Akt signaling pathway regulates many normal cellular processes including cell proliferation, survival and growth that are critical for tumorigenesis. Dysregulation of the PI3K signaling pathway occurs commonly in human cancers. MCF7 is a human breast carcinoma cell line that has an activating E545K PI3Kα heterozygous mutation in the helical domain of the p110α protein leading to hyperactivity of the PI3K-alpha pathway. […] Compounds are added to MCF7 cells, cell proliferation/viability is measured 96 hours post compound treatment using cell titer-glo to measure the ATP content of the cells in the well. Lack of or reduced proliferation is a measure of the extent of PI3K-alpha inhibition.
# [8] = test system: MCP-1 stimulated pAkt in THP-1 cells (PI3K-gamma); assay: MCP-1 Stimulated pAkt in THP-1 Cells; format: cell-based; details: Homo sapiens
# Experimental: Chemokines like MCP-1 bind to their receptors resulting in activation of the PI3K-gamma signaling pathway. PI3K-gamma leads to generation of PIP3 and activation of downstream molecules like PDK-1 and Akt. Akt phosphorylation is a measure of PI3K activity in the cell. In this assay, THP-1 cells (human monocytic cell line) are starved overnight to deplete pAkt levels. Subsequent stimulation with MCP-1 for 3 minutes leads to PI3K-gamma-induced phoshorylation of Akt at the Threonin 308 and Serine 473 sites. Cells were fixed and stained for intracellular phosphoAKT (Ser 473) then analyzed using a BD FACSCalibur™ cytometer resulting in a measure of cellular PI3K-gamma activity.
# CYP3A4, sequence (P08684 whole entry): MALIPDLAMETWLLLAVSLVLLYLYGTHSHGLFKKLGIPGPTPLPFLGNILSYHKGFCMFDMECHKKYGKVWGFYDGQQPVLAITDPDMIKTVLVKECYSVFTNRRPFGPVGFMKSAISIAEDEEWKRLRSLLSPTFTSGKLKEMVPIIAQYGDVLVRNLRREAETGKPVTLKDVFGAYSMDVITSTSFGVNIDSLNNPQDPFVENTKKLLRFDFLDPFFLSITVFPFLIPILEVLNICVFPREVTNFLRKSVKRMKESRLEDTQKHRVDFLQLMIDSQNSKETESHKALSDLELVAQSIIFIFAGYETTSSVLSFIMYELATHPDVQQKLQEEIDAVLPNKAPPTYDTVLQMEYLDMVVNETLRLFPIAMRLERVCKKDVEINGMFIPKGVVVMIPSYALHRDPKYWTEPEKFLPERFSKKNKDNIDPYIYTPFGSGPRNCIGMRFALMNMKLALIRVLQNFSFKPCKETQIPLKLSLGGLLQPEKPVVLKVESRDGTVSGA
# T1 sequence (O75469 whole entry): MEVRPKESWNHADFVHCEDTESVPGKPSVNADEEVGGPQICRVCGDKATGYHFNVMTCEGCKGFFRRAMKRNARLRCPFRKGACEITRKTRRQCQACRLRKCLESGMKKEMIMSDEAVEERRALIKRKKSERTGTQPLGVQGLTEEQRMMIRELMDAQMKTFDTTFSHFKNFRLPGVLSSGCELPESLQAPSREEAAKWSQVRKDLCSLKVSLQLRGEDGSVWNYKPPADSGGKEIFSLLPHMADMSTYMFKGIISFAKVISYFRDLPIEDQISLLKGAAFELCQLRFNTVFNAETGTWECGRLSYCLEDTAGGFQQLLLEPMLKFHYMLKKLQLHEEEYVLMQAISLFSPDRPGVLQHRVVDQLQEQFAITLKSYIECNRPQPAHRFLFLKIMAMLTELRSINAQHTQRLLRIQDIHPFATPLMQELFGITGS
structure (smiles),measurement,setting,value
"Cc1cc(-c2cncc([C@@H](O)C(F)(F)F)c2)nc2c1C(=O)N(c1cnn(CC(F)F)c1)C2(C)C [Compound 1, (R)-6-(1-(2,2-difluoroethyl)-1H-pyrazol-4-yl)-4,7,7-trimethyl-2-(5-(2,2,2-trifluoro-1-hydroxyethyl)pyridin-3-yl)-6,7-dihydro-5H-pyrrolo[3,4-b]pyridin-5-one]",% HBF (hepatic blood flow),"[1]; Dog, 0.5 mg/kg nominal",~13%
same,DN_AUCINF,"[1]; Dog, 0.5 mg/kg nominal",4000 ng·h/mL
same,% HBF (hepatic blood flow),"[1]; Monkey, 0.5 mg/kg nominal",~26%
same,DN_AUCINF,"[1]; Monkey, 0.5 mg/kg nominal",1500 ng·h/mL
same,DN_AUCINF,"[1]; Mouse, 0.45 mg/kg nominal",3400 ng·h/mL
same,AUC,"[1]; Dog, 0.5 mg/kg nominal",1900 ng·h/mL
same,AUC(0-inf),"[1]; Dog, 0.5 mg/kg nominal",2000 ng·h/mL
same,clearance,"[1]; Dog, 0.5 mg/kg nominal",5.4 mL/min/kg
same,half-life,"[1]; Dog, 0.5 mg/kg nominal",10.7 h
same,Vd,"[1]; Dog, 0.5 mg/kg nominal",3.9 L/kg
same,AUC,"[1]; Monkey, 0.5 mg/kg nominal",700 ng·h/mL
same,AUC(0-inf),"[1]; Monkey, 0.5 mg/kg nominal",740 ng·h/mL
same,clearance,"[1]; Monkey, 0.5 mg/kg nominal",11.5 mL/min/kg
same,half-life,"[1]; Monkey, 0.5 mg/kg nominal",6.6 h
same,Vd,"[1]; Monkey, 0.5 mg/kg nominal",3.3 L/kg
same,AUC,"[1]; Mouse, 0.45 mg/kg nominal",1090 ng·h/mL
same,AUC(0-inf),"[1]; Mouse, 0.45 mg/kg nominal",1530 ng·h/mL
same,clearance,"[1]; Mouse, 0.45 mg/kg nominal",4.9 mL/min/kg
same,half-life,"[1]; Mouse, 0.45 mg/kg nominal",4.3 h
same,Vd,"[1]; Mouse, 0.45 mg/kg nominal",1.8 L/kg
same,"Papp A→B at 1 h, 1 μM","[2]; MDCK, A > B",33 ×10⁻⁶ cm/s
same,"recovery at 1 h, 1 μM","[2]; MDCK, A > B",90%
same,"recovery at 1 h, 1 μM","[2]; MDCK, B > A",93%
same,"efflux ratio at 1 h, 1 μM",[2],1.4
same,"Papp B→A at 1 h, 1 μM",[2]; B > A,23.8 ×10⁻⁶ cm/s
same,Avg. Papp,[3],17.55 ×10⁻⁶ cm/s
same,body weight loss (FIG. 4),"[4]; 5 mg/kg b.i.d. IP, *p<0.05 d3, **p<0.01 d4, vs vehicle",significantly inhibited
same,body weight loss (FIG. 4),"[4]; 10 mg/kg b.i.d. IP, ***p<0.001 d3-4, vs vehicle",significantly inhibited
same,IC50,"[5]; CYP3A4, 2.5 μM Midazolam",19 µM
same,IC50,"[5]; CYP3A4, 50 μM Testosterone",> 75 µM
same,"PXR activation, response relative to positive control","[6]; 0.1-30 μM, Rifampicin positive control",5%
same,EC50,[6]; PXR activation,> 30 µM
same,IC50,"[7]; MCF7, 96 h, MCF7 Proliferation, 96 hours, PI3K-alpha dependent, read-out: IC50 Avg +/− SD",> 17 µM
same,IC50,"[7]; MCF7, MCF7 Proliferation, footnote **, read-out: Individual assay data (IC50)",15.7 µM
same,selectivity over PI3K-alpha,[7]; MCF7 proliferation,> 67 fold
same,IC50,"[8]; THP-1, summary of cell assays, read-out: potency in PI3K-gamma associated cell assays",0.25 µM
same,IC50,"[8]; THP-1/MCP-1/pAkt, PI3K-gamma dependent, read-out: IC50 Average ± Standard Deviation",0.24 ± 0.07 µM
